Read-outs that look alike come from different tables or passages of the source.
Legend:
[1] = tested on: K562 human chronic myelogenous leukemia cells; experiment: Lactic dehydrogenase release from K562 cells; format: cell-based; settings: n=4, read-out: IC50, lactate dehydrogenase release from K562 cells
Experimental: Experiment 4 was designed to confirm apoptotic cell death of U251 cells induced by ATA, AQA, AHA, and ATAC by measuring release of lactic dehydrogenase into the cell medium. For serum lactate dehydrogenase determination, reaction supernatants ([…]) were pipetted into the wells of 96-well plates, followed by the addition of […] lactate solution (36 mg/mL in PBS) and […] INT (iodonitrotetrazolium chloride, 2-(4-iodophenyl)-3-(4-nitrophenyl)-5-phenyl-2H-tetrazolium chloride) solution (2 mg/mL in PBS). The enzymatic reaction was started by addition of […] of NAD^+/diaphorase solution (3 mg/mL NAD^+; 2.3 mg solid/mL diaphorase). After 1 h, optical densities were measured with a microplate reader using a 490 nm filter. The amount of LDH released was expressed as a percentage of the value obtained in comparative cells where cells were 100% lysed by 1% Triton X-100.
Experiment 18 was designed to determine if apoptotic cell death of K562 human chronic myelogenous leukemia cells was induced by ATA, AQA, AHA, and ATAC as determined by the release of lactic dehydrogenase into the cell medium. The protocol was identical to that used in Experiment 16(b) except that K562 human chronic myelogenous leukemia cells were used.

VEGF [2] = experiment: Western blot of VEGF expression and release by U251 cells; format: cell-based, human; settings: 10 μM, 1 day; for expression of vascular endothelial growth factor (VEGF) in U251 cells: cell extract; for release of VEGF into the extracellular milieu by U251 cells: supernatant
Experimental: (§1) Experiment 2 was designed to determine the effect of ATA, AQA, and AHA on the expression and release of Factor H and VEGF by U251 cells. Cells were grown in DMEM for 24 h at 37° C., after which ATA, AQA, or AHA was added to the medium at a final concentration of 10 μM and incubation carried out for a further 24 h. The medium was drawn off, and the cells washed with PBS. Lysis buffer was then added to the cells. Forty microliters of the cell lysate, or the supernatant media, were loaded onto 12% polyacrylamide gels and separated under non-reducing conditions (70 V, 3-6 h). Following SDS-PAGE, proteins were transferred to a PVDF membrane (Bio-RadTM, CA) at 30 mA for 2 h. The membranes were blocked with 5% milk in PBS-T (80 mM Na2HPO4, 20 mM NaH2PO4, 100 mM NaCl, 0.1% Tween 20, pH 7.4) for 1 h, and incubated overnight at 4° C. with primary antibodies for Factor H (CytotechTM, goat 1/1000) and for VEGF (MilliporeTM, rabbit 1/2000). The membranes were then washed 3 times with PBST. They were then treated with an appropriate horseradish peroxidase (HRP)-conjugated secondary antibody for 3 h at room temperature. The secondary antibodies were anti-rabbit IgG (P0448, DAKOTM, Mississauga, Ontario, CA, 1/2,000) and anti-goat IgG (A[…], MilliporeTM, Billerica, Ma, 1/3,000). The bands were visualized with an enhanced chemiluminescence system and exposure to photographic film (Hyperfilm ECLTM, AmershamTM Pharmacia Biotech, Little Chalfont, UK). For reprobing of membranes with an alternative antibody, the membranes were treated with 10 mL of stripping buffer (3 mL of 1 M Tris-HCl pH 6.7, 10 mL of 10% SDS, 347 μL of 14 M mercaptoethanol, and 36.5 mL deionized water) at 60° C. for 1 h. The membrane was then placed on a shaking incubator for 30 min to clear it of all bound antibodies. The stripped membrane was then treated with a different primary antibody as previously described.

U251 cells = experiment: DNA laddering (apoptosis) in U251 cells; format: cell-based, human; settings: 10 μM, 1 day, agarose gel
Experimental: (§2) For determination of DNA laddering, which is indicative of DNA disintegration, cells were precipitated by centrifugation, washed, and lysed with […] Tris-HCl, 5 mM EDTA, and 3% Triton-X-100. The lysates were incubated at 37° C. for 1 h and then centrifuged at 12,000g for 10 min. They were treated with phenol/chloroform/isoamylalcohol (25:24:1) and chloroform/isoamylalcohol (24:1) twice each, and precipitated with 0.6 volume isopropyl alcohol and 0.1 volume 3 M sodium actate at −20° C. for 30 min. The precipitates were centrifuged at 12,000 g for 20 min, washed with 70% ethanol and dissolved with TE buffer containing 2 μg/mL bovine RNase. DNAs were electrophoresed in 10 μg/mL ethidium bromide containing 2% w/v agarose gel.

VEGF [3] = experiment: Western blot of VEGF expression and release by BxPC-3 cells; format: cell-based, human; settings: 10 μM, 1 day; for expression of vascular endothelial growth factor (VEGF) in BxPC-3 cells: cell extract; for release of VEGF into the extracellular milieu by BxPC-3 cells: supernatant
Experimental: as §1, with “described. Experiment 6 was designed to determine the effect of ATA, AQA, and AHA on the expression and release of Factor H and VEGF by BxPC-3 cells.” for “described.”

BxPC-3 cells = experiment: DNA laddering (apoptosis) in BxPC-3 cells; format: cell-based, human; settings: 10 μM, 1 day, agarose gel
Experimental: as §2

A549 cells = experiment: DNA laddering (apoptosis) in A549 cells; format: cell-based, human; settings: 10 μM, 1 day, agarose gel
Experimental: as §2
The protocol was identical to that used in Experiment 7 except A549 cells were used.

Row | Compound | IC50 ([1]; Homo sapiens) [µM] | expression of vascular endothelial growth factor (VEGF) in U251 cells (VEGF [2]) | release of VEGF into the extracellular milieu by U251 cells (VEGF [2]) | DNA fragmentation (180 bp laddering) in U251 cells (U251 cells) | expression of vascular endothelial growth factor (VEGF) in BxPC-3 cells (VEGF [3]) | release of VEGF into the extracellular milieu by BxPC-3 cells (VEGF [3]) | DNA fragmentation (180 bp laddering) in BxPC-3 cells (BxPC-3 cells) | DNA fragmentation (180 bp laddering) in A549 cells (A549 cells) | IC50 [1] [µM]
1 | O=C(O)C1=CC(=C(c2ccc(O)c(C(=O)O)c2)c2ccc(O)c(C(=O)O)c2)C=CC1=O [ATA, aurin tricarboxylic acid] | 4.7 | – | – | – | – | – | – | – | –
2 | aurin quadracarboxylic acid [AQA] | – | reducing expression | reducing release | induced DNA fragmentation | reducing expression | reducing release | induced DNA fragmentation | induced DNA fragmentation | 4.6
3 | aurin hexacarboxylic acid [AHA] | – | reducing expression | reducing release | induced DNA fragmentation | reducing expression | reducing release | induced DNA fragmentation | induced DNA fragmentation | 4.6

From patent publication US10653651B2, “Kit for treating cancer with low molecular weight components of aurin tricarboxylic acid complex” (Aurin Biotech Inc., priority 2014, dated 2020)
